Data reported in patent US20030176401A1, “Sodium salt of an azo derivative of 5-aminosalicylic acid” (priority 2000, published 2003).

Key:
[1] = Azoreduction after oral administration: distribution of product and UR-12715 in faeces, study in monkeys; type: in vivo, Cynomolgus monkeys; details: for relative percentage of Product (administered compound) found in faeces: 100 mg/kg p.o. (UR-12746 suspension in 0.2% CMC; sodium salt capsules)
Method: (§1) The level of azoreduction has been studied by determining the distribution of UR-12746 and UR-12715 in faeces after the oral administration of UR-12746 and its sodium salt in rats and monkeys.
6 Cynomolgus monkeys were used for this study. Each test product was administered to three monkeys, respectively. UR-12746 was administered as a suspension in 0.2% CMC, at a dose of 100 mg/kg p.o. (1000 mg UR-12746/10 mL of 0.2% CMC), whereas the sodium salt of UR-12746 (polymorph I) was administered as individualized capsules for each animal at a dose of 100 mg/kg p.o.
The monkeys were placed in metabolic cages, so that urine and faeces could be separately collected, and faeces corresponding to the periods 0-24 h, 24-48 h and 48-72 h were collected.
The treatment of the faeces and the determination of the amount of administered product and metabolite present in the samples were carried out following the same procedure described above for the study in rats.
As in the rat study, the azoreduction level was determined from the amounts of product and UR-12715 recovered in faeces.

[2] = Azoreduction after oral administration: distribution of product and UR-12715 in faeces, study in rats; type: in vivo, Sprague-Dawley rats; details: for relative percentage of Product (administered compound) found in faeces: female rats, 50 mg/kg oral, suspension in 0.2% CMC, mean of 3; for azoreduction after oral administration: rats
Method: as §1
For the study in rats, 6 female Sprague-Dawley rats weighing between 169 and 185 g were used. UR-12746 and the sodium salt of UR-12746 (polymorph I) were orally administered to three rats each as a suspension in 0.2% carboxymethylcelulose (CMC), at a dose of 50 mg/kg (100 mg of test compound/10 mL of 0.2% CMC).
The rats were placed in metabolic cages, so that urine and faeces could be separately collected, and faeces were collected during the periods 0-24 h and 24-48 h. The faeces collected in the same period were weighted and crumbled. Water was added (2 mL of water/g of faeces) and the paste obtained was stirred to homogeneity. The total weight of the homogenate was then determined.
An aliquot of this homogenate (about 2 g) was mixed with 4 mL of MeOH, stirred in a Vortex and centrifuged for 10 minutes at 4500 rpm (3000 g). The supernatant was filtered through a 0.45 μm filter, and the concentrations of the administered product and metabolite present in the sample were determined by a HPLC chromatographic method with gradient elution and ultraviolet detection, under the conditions detailed below:
The level of azoreduction was determined from the amounts of product and UR-12715 recovered in faeces. The relative percentage of the amounts corresponding to the product (UR-12746 or sodium salt of UR-12746) and to the metabolite (UR-12715) found in faeces after oral administration are shown in Table 3. Results are given as the mean values.

| relative percentage of Product (administered compound) found in faeces ([1]; faeces 0-24 h) [%] | relative percentage of Product (administered compound) found in faeces ([1]; faeces 0-72 h) [%] | relative percentage of Product (administered compound) found in faeces ([1]; faeces 24-48 h) [%] | relative percentage of Product (administered compound) found in faeces ([1]; faeces 48-72 h) [%] | azoreduction (metabolization in the colon) after oral administration [1] | relative percentage of Product (administered compound) found in faeces ([2]; faeces 0-24 h) [%] | relative percentage of Product (administered compound) found in faeces ([2]; faeces 0-48 h) [%] | relative percentage of Product (administered compound) found in faeces ([2]; faeces 24-48 h) [%] | azoreduction after oral administration [2] | SMILES |
| --- | --- | --- | --- | --- | --- | --- | --- | --- | --- |
| 12.6 | 9.7 | 6.5 | 5.0 | around 90% | 21.1 | 20.8 | 12.1 | around 79% | Cc1nc2cnccc2n1CC1CCN(C(=O)/C=C(/c2ccccc2)c2ccc(N=Nc3ccc(O)c(C(=O)[O-])c3)cc2)CC1.[Na+] [Sodium salt of UR-12746, sodium salt of (Z)-2-hydroxy-5-[[4-[3-[4-[(2-methyl-1H-imidazo[4,5-c]pyridin-1-yl)methyl]-1-piperidinyl]-3-oxo-1-phenyl-1-propenyl]phenyl]azo]benzoic acid] |
| >99 | >99 | >99 | >99 | no azoreduction | 78.8 | 76.1 | 52.5 | 24% | Cc1nc2cnccc2n1CC1CCN(C(=O)/C=C(/c2ccccc2)c2ccc(N=Nc3ccc(O)c(C(=O)O)c3)cc2)CC1 [UR-12746, (Z)-2-hydroxy-5-[[4-[3-[4-[(2-methyl-1H-imidazo[4,5-c]pyridin-1-yl)methyl]-1-piperidinyl]-3-oxo-1-phenyl-1-propenyl]phenyl]azo]benzoic acid] |
